System: MHC Class II
Experiment: Splenocyte cell surface density/distribution (FACS): MHC Class II
Type: in vivo, mouse (Balb/c female)
Procedure: One group of 4 unstimulated Balb/c female mice is injected with PBS (Group A). Another (Group B) is injected with 20 μg (±) methyl 11α,16-dihydroxy-16-methyl-9-oxoprosta-5Z,13E-dien-1-oate as in Example 13. […] A 3 cm incision is made with a scalpel above the left hip, and the spleen is cut free from adjoining tissue and placed in a 100 mn plastic culture dish containing 10 ml PBS. The splenic cells are then made into a suspension, by rubbing the spleens between the rough, frosted ends of microscope slides repeatedly until the only remaining particulate matter is connective tissue. Cells are transferred to a 15 ml conical polystyrene tube and centrifuged in a centrifuge at 1200 rpm for 5 minutes. The supernatant is discarded by aspiration and the cell pellet is resuspended in 10 ml PBS, then centrifuged at 1200 rpm for 5 minutes. The supernatant is aspirated and the cell pellet is resuspended in 15 mM Tris, 140 mM Ammonium Chloride, to lyse red blood cells. After incubating at room temperature for 10 minutes the cell suspension is centrifuged at 1200 rpm for 10 minutes. The supernatant is discarded and the cell pellet is resuspended in 10 ml FACS Buffer (PBS containing 0.1% BSA and 0.1% Sodium Azide). The cell suspension is filtered through sterile glass wool plugged in the top of a pasteur pipet. Cells in the flow through are counted using a hemacytometer, then the cell suspension is centrifuged at 1200 rpm for 5 minutes. The supernatant is discarded and the cell pellet is resuspended in a volume of FACS Buffer that will yield 4×10^7 cells/ml. 10 μl (4×10^5 cells) is added to each well of a 96-well V-bottom plate. 25 μl of diluted monoclonal antibody directed against splenocyte cell surface proteins is added to each well: Major Histocompatability Complex (MHC) Class II (M5114, ATCC, Rockville Md.), MHC Class I (M1/42, ATCC), Anti-IgD (JA12.5, ATCC, Rockville, Md.), Thymocyte (Thy)-1 (JIJ, ATCC), B220 (14.8, ATCC), Kappa light chain (187, ATCC), IL-2 Receptor (7D4, ATCC), Lyt-1 (7.313, ATCC) and CD23 (biotinylated B3B4) and incubated on ice for 30 minutes. 100 μl 10% BSA 0.1% sodium azide is added to each well, then the plates are centrifuged at 1200 rpm for 10 minutes. The liquid is removed by aspiration and the cell pellets are resuspended in 100 μl FACS Buffer, and centrifuged at 1200 rpm for 5 minutes. […] Samples are transferred to individual tubes and 10,000 cells are analyzed. Using the Lysis software (Becton Dickinson, Mountain View, Calif.) the mean channel log fluorescence and percent positive cells are determined for the entire cell population. […]

Compound: CCCCC(C)(O)C/C=C/[C@H]1[C@H](O)CC(=O)[C@@H]1C/C=C\CCCC(=O)OC (mixture of isomers) [(±) methyl 11α,16-dihydroxy-16-methyl-9-oxoprosta-5Z,13E-dien-1-oate]
- Percentage Positive Cells (anti-IgD stimulated mice, 20 μg days 3 and 4, day 7 (PBS 59.8)): 68.6 ± 5.1%
- Mean Channel Log Fluorescence (anti-IgD stimulated mice, 20 μg days 3 and 4, day 7 (PBS 134)): 137 ± 15
- Percentage Positive Cells (unstimulated mice, 20 μg (PBS 56.2)): 56.9 ± .4%
- Mean Channel Log Fluorescence (unstimulated mice, 20 μg (PBS 148)): 149 ± 8
